Source: the NIST ThermoML archive (doi:10.1021/je049662k)

Details: Liquid, Falling or rolling sphere viscometry

CCCCCCC [heptane]
viscosity [mPa·s]
Details | 303.15 K | 313.15 K | 323.15 K | 333.15 K | 343.15 K | 353.15 K
100 kPa | 0.368 | 0.33 | 0.303 | 0.273 | 0.245 | 0.231
1000 kPa | 0.371 | 0.334 | 0.306 | 0.276 | 0.247 | 0.233
5000 kPa | 0.387 | 0.348 | 0.319 | 0.289 | 0.26 | 0.246
10000 kPa | 0.408 | 0.368 | 0.336 | 0.306 | 0.277 | 0.262
15000 kPa | 0.429 | 0.388 | 0.354 | 0.323 | 0.294 | 0.278
20000 kPa | 0.45 | 0.407 | 0.371 | 0.34 | 0.31 | 0.293
25000 kPa | 0.471 | 0.427 | 0.389 | 0.357 | 0.326 | 0.307
30000 kPa | 0.492 | 0.446 | 0.406 | 0.374 | 0.341 | 0.322
35000 kPa | 0.514 | 0.465 | 0.424 | 0.39 | 0.357 | 0.336
40000 kPa | 0.535 | 0.484 | 0.442 | 0.407 | 0.372 | 0.349
45000 kPa | 0.556 | 0.503 | 0.461 | 0.423 | 0.387 | 0.361
50000 kPa | 0.578 | 0.522 | 0.479 | 0.439 | 0.402 | 0.374
55000 kPa | 0.6 | 0.542 | 0.498 | 0.456 | 0.416 | 0.386
60000 kPa | 0.622 | 0.562 | 0.517 | 0.472 | 0.431 | 0.397
